The values below come from PMC4758254 (Nature plants, 2015).

Each structure is given as a SMILES string.

One experiment concerns the target T1, AtINT2 (Arabidopsis thaliana, UniProt Q9C757).
T1 sequence (Q9C757 1-580): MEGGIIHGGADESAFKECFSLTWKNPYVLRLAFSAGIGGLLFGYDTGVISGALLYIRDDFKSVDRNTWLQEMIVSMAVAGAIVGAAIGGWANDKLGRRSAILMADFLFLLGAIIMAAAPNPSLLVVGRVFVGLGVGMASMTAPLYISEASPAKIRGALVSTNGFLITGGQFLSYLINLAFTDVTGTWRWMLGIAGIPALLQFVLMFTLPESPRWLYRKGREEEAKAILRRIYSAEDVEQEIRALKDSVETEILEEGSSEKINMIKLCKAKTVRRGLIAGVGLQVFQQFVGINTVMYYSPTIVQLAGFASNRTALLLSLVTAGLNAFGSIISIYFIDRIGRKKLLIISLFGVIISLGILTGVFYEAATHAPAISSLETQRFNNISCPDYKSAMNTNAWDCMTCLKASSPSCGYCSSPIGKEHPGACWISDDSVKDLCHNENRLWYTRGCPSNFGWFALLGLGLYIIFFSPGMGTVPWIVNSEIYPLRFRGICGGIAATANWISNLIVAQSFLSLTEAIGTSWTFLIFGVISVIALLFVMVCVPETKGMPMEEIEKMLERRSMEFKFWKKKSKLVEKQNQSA
In words: inhibition of arsenic uptake into yeast cells, ICP-MS. Format: cell-based. The settings on record: 250 μM As(III), 0-8 μg/mL myo-inositol, 24 h, 30 °C; substrate competition.

For another experiment, the target named is T2, AtINT4 (Arabidopsis thaliana, UniProt O23492).
T2 sequence (O23492 1-582): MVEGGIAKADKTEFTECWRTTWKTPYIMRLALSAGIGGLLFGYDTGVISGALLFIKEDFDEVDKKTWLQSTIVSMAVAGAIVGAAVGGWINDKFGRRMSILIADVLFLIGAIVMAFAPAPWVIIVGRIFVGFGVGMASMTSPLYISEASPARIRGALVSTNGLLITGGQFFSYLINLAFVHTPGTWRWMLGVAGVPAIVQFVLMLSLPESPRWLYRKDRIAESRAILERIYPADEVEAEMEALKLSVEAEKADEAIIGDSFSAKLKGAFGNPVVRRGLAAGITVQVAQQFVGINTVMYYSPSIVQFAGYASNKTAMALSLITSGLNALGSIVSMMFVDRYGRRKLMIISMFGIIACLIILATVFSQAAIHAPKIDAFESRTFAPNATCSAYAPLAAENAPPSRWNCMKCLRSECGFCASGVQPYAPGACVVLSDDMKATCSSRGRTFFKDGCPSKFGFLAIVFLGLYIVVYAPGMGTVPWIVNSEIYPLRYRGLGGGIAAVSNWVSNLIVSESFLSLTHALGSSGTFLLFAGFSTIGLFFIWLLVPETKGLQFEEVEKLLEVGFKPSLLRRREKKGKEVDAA
The description is as above. In kind it is cell-based. The settings on record: 250 μM As(III), 0-8 μg/mL myo-inositol, 24 h, 30 °C; substrate competition.

`O[C@H]1[C@H](O)[C@@H](O)[C@H](O)[C@@H](O)[C@H]1O` [myo-inositol]: the “inhibition of arsenic uptake into yeast cells, ICP-MS” value at AtINT2 and on AtINT4 was “substrate competition inhibited arsenic accumulation in D458-1B expressing AtINT2 or AtINT4” throughout.
